Results published in US7772383B2, “Chemical PCR: Compositions for enhancing polynucleotide amplification reactions” (The Trustees of Princeton University, priority 2002, dated 2010).

Legend:
[1] = tested on: bovine brain glycolipid transfer protein (GTP) cDNA (660 bp); assay: PCR amplification of GTP cDNA with diol additives, standard cycling; assay type: biochemical; conditions: for Potency / Effective range: GTP; for Potency: 95° C. denaturing, 72° C. extension, normalized maximum densitometric volume of target band: 1,5-Pentanediol = 1; for Effective range: concentration interval over which densitometric volume of target band is at least 50% of maximum volume
Description: (§1) Amplification reactions were carried out under the following general conditions. Those skilled in the art will appreciate, however, that to the extent that the conditions (set forth in this application) required for specific experiments described in this example were inconsistent with the following general conditions, limited exceptions to the following general conditions were made The general conditions were as follows: 10 Mm Tris-HCl (Ph 8.8), 50 Mm KCl, 1.5 Mm MgCl2, 0.01% (w/v) gelatin, 0.2 Um primers, 0.06 ng/ul template, 0.2 Mm each Dntp, 0.04 U/ul Taq polymerase. The templates used were bovine brain N-WASP cDNA (1518 bp), a 996 bp segment of human myeloid leukocyte c-jun cDNA, a 511 bp segment of human prostate-specific membrane antigen (PSM) cDNA, and bovine brain glycolipid transfer protein (GTP) cDNA (660 bp). cDNA synthesis was carried out using the FIRST-STRAND® RT-PCR kit from Stratagene on the respective mRNAs purchased from Clontech. All amplification reactions for gene were carried out using a single master batch of cDNA. Taq polymerase and dNTPs were obtained from Stratagene. Primers were obtained from Genosys. Primer melting temperatures (Tms) were calculated using the Genosys oligo calculator program. The sequences of the primers were as follows.
(§2) Polymerase chain reactions for the N-WASP gene were conducted on a ROBOCYCLER® Gradient 40 thermal cycler from Stratagene using 100 ul solutions in 600 ul thin-walled tubes. For expediency, amplification of c-jun, PSM and GTP was carried out in a ROBOCYCLER® Gradient 96 thermal cycler from Stratagene using 50 ul solutions in 200 ul thin-walled tubes. Prior to Taq polymerase addition, a hotstart protocol was carried out that consisted of an initial cycle of 95° C. for 5 minutes (11) to ensure complete first-strand separation, followed by a cycle of 54° C. for 5 minutes. Amplifications were run for 30 cycles. […] Extension was done at 72° C. for periods depending on target length: 2 minutes for N-WASP, 1.5 minutes for c-jun and GTP, and 1 minute for PSM. Annealings were carried out either at fixed concentrations of additives using temperature gradients of 38-56° C. for N-WASP and 44-58° C. for the other targets, or at varying concentrations of additives using fixed temperatures of 41° C. for N-WASP, 50° C. for c-jun and PSM, and 54° C. for GTP.
(§3) Amplification products were analyzed by agarose gel electrophoresis on 0.8% agarose gels in which 20 ul reaction products were loaded with 4 ul loading buffer. Gels were stained with ethidium bromide, visualized on a UV transilluminator (Fisher), and documented by photography. Densitometric quantitation of amplification products was carried out using IMAGE SCANNER® and IMAGE MASTER® software from Amersham Pharmacia. Background correction was done using the software's rolling disc method.
Investigations into the PCR enhancing capabilities of diol cosolvents were carried out using GTP as the primary template. […] The standard protocol for annealing temperature and concentration gradient screening was again followed. […] These cosolvents were thus omitted from further studies. The optimal annealing temperatures for the remaining compounds were: ethylene glycol, 1,2-propanediol, 1,3-propanediol and cis-1,2-cyclopentanediol—58° C.; 1,2-butanediol—54° C.; 1,3-butanediol and 1,4-butanediol—[…]; 2,4-pentanediol, 1,5-pentanediol, 1,6-hexanediol and MPD—56° C.

[2] = tested on: 511 bp segment of human prostate-specific membrane antigen (PSM) cDNA; assay: PCR amplification of PSM cDNA with diol additives, standard cycling; assay type: biochemical; conditions: PSM; for Specificity: best specificity (densitometric volume of target as percent of total volume) over the effective range; for Effective range: concentration interval over which densitometric volume of target is at least 50% of maximum; for Potency: normalized maximum densitometric volume of target band: 1,3-Butanediol = 1
Description: as §1, §2, §3
(§4) With PSM, 1,2-propanediol, 1,2-butanediol, 1,3-butanediol, 1,4-butanediol and glycerol were tested; with c-jun, ethylene glycol and 1,3-propanediol were also tested in addition to these compounds. […] The following additive concentrations were tested using these annealing temperatures: 1,2-propanediol—0.5, 0.8, 1.1, 1.4, 1.7 and 2.0M; 1,2-butanediol—0.1, 0.3, 0.5, 0.6, 0.7 and 0.8M; 1,3-butanediol—0.1, 0.3, 0.5, 0.6, 0.9, 1.1, 1.2M; 1,4-butanediol—0.1 to 1.1M in 0.2M intervals; 1,5-pentanediol—0.1-0.6M in 0.1M intervals; glycerol—0.5 to 1.9M in 0.2M intervals, and 2.2M.

[3] = tested on: 996 bp segment of human myeloid leukocyte c-jun cDNA; assay: PCR amplification of c-jun cDNA with diol additives, standard cycling; assay type: biochemical; conditions: c-jun; for Effective range: concentration interval over which densitometric volume of target band is at least 50% of maximum volume; for Potency: normalized maximum densitometric volume of target band: 1,5-Pentanediol = 1
Description: as §1, §2, §3, §4

[4] = tested on: 50% GC DNA; assay: Predicted cosolvent-induced Tm depression of DNA; assay type: physicochemical; conditions: 1.0M 1,5-pentanediol, 0.7M 1,6-hexanediol, linearity not verified
Description: The compounds utilized in the first phase (testing using 1.0M 1,5-pentanediol and 0.7M 1,6-hexanediol at temperatures between 46 and 62° C.) were chosen on the basis of the following rationale. The optimal additive for a low temperature PCR reaction is one that lowers the melting temperature of DNA as much as possible while minimally compromising polymerase activity. 1,5-Pentanediol and 1,6-hexanediol are both powerful DNA melting agents. In addition, it was found in the 62° C. activity studies that the rate of activity decline with concentration of 1,5-pentanediol was roughly equivalent to that of 1,2-butanediol, despite the fact that the former is a much stronger DNA denaturant. 1.0M 1,5-pentanediol and 0.7M 1,6-hexanediol are predicted to lower the Tm of a 50% GC DNA by approximately the same amount: 19° C.

SMILES	Potency [1]	Effective range [1]	Specificity [2]	Effective range [2]	Potency [2]	Effective range [3]	Potency [3]	GTP Potency ([1]; comparative standard 95/55/72° C., 0.3 M, best result under conventional conditions, normalization reference)	lowering of the Tm of a 50% GC DNA [4]
CCC(O)CO (stereo not shown) [1,2-Butanediol]	0.57	0.08 to 0.62 M	92%	0.34 to 0.73 M	0.42	0.27 to 0.74 M	0.64		
OCCCCCO [1,5-Pentanediol]	1.00	0.16 to 0.47 M	94%	0.31 to 0.49 M	0.54	0.17 to 0.45 M	1.00	1.00	~19 °C
